Test results from patent US20260007717A1, “ANTIMICROBIAL PEPTIDE COMPOUNDS AND METHODS OF USE” (priority 2022, published 2026).

Experiments:
A. baumannii YQ4 [1] = assay: ATP leakage assay; type: cell-based, Acinetobacter baumannii; details: 1×MIC, 30 min
Method: ATP leakage assay was performed using the Enhanced ATP Assay Kit of Beyotime (S0027) according to the manufacturer's manual. Briefly, the log-phase culture of A. baumannii YQ4 was prepared, washed and suspended in PBS as above. This suspension was exposed to 16 μg/ml COG1410, 16 μg/ml polymyxin B and 32 μg/ml tigecycline, respectively and incubated at 37° C. for 30 min. The supernatant was harvested and used for measurement of ATP levels. 100 μl of supernatant was mixed with 100 μl working solution and the chemiluminescence was measured by Biotek Synergy H1 plate reader. Untreated sample was set as negative control. The experiments were performed in triplicate.

A. baumannii YQ4 [2] = details: COG1410 combined with polymyxin B
Method: The checkerboard method was performed to determine the fractional inhibitory concentration (FIC) index between COG1410 and other antimicrobials. Two-fold serial dilutions of antimicrobials and COG1410 were conducted and mixed in the 96-well plate. […] The experiments were conducted twice independently.

[3] = tested on: pan-drug resistant (PDR) Acinetobacter baumannii YQ4; details: A. baumannii YQ4, LB broth
PDR A. baumannii YQ4 = assay: Dynamic time-kill assay in PBS; details: 30 min
Method: For dynamic time-kill assay, the overnight culture of A. baumannii YQ4 was transferred to fresh broth with initial OD600 0.01 and grown to the logarithmic phase. 1 ml culture was harvested, washed twice with 1× phosphate-buffered saline (PBS, pH7.4), containing 8 mM NaH2PO4, 2 mM KH2PO4, 2.6 mM KCl, 136 mM NaCl), and finally suspended in 1 ml PBS with OD600 0.5, which approximately corresponds to 1×10^8 CFU/ml. […] 100 μl aliquot was respectively taken at 0, 5, 10 and 30 min, serially diluted in PBS and plated on LB agar. The CFUs were counted after incubation at 37° C. for 18 h. […] Three independent experiments were performed.

A. baumanii YQ4 = assay: Induction of resistance through serial passage; details: after 55 passages at sub-MIC
Method: The initial concentration of the tested compounds was set up as 1/32×MIC and doubled every 10 passages. The 1 ml of bacterial culture was stored in 10% sterile glycerol at −80° C. every 5 passages. The MIC value of collected cultures and original strains were measured through the micro-dilution method.

Question: Which results are given for polymyxin B [reference compound]?
Answer: ATP leakage (A. baumannii YQ4 [1]): released more ATP compared to untreated cells; working concentration in the combination (A. baumannii YQ4 [2]): 1 µg/mL; MIC [3]: 16 µg/mL; reduction in CFU (PDR A. baumannii YQ4; 1×MIC): 2 log; reduction in CFU (PDR A. baumannii YQ4; 5×MIC): 4 logs; increase of MIC (A. baumanii YQ4): 64 fold
